Test results as given in US11945821B1, “5-substituted aminopyrazino[2′,1′:2,3]imidazo[4,5-C][2,7]naphthyridine compounds as CK2 inhibitors” (KING FAISAL UNIVERSITY, priority 2023, dated 2024).

Columns and labels:
PC3 (prostate) = assay: In vitro cytotoxic activity (MTT) assay, PC3; type: cell-based; settings: Homo sapiens, PC-3; PC3 cells, exposed for 96 hours; read-out: IC50, 50% inhibition of cell proliferation, PC3 (prostate)
Method: (§1) Compounds 1-12 were screened for their in vitro cytotoxic activity utilizing a 3-(4,5-dimethyl-thiazol-2-yl)-2,5-diphenyltetrazolium bromide (MTT) assay against selected cancer human cell lines consisting of PC3 (prostate), HCT116 (colon), A375 (melanoma), H1299 (lung), MIAPaCa-2 (pancreas), HL60 (leukemia), MCF7 (breast), MDA-MB-231 (breast) (T. Mosmann, J. Immunol. Meth., 1983, 65, 55-63). The cells were cultured at 37° C. in RMPI1640 medium supplemented with 10% fetal bovine serum, 50 IU/mL penicillin, and 50 μg/mL streptomycin in a 5% CO2 incubator. All cells were sub-cultured 3 times/week by trypsinisation. Viable cells were seeded and allowed to adhere for 12 h before a test drug was added in 96-well plates at an initial density of 1.0×10^5 cells/mL. Tumour cell lines were separately exposed to various concentrations of the tested compounds followed by incubation at a temperature of 37° C. during 96 h inside a medium of fresh RMPI 1640. Cells were subsequently incubated at 37° C. using MTT at 0.5 mg/mL during 4 h. After removal of supernatant, formazan crystals were dissolved in isopropanol and the optical density was measured at 570 nm. CX-4945 was used as a positive control.

HCT116 (colon) = assay: In vitro cytotoxic activity (MTT) assay, HCT116; type: cell-based; settings: Homo sapiens, HCT-116; HCT116 cells, exposed for 96 hours; read-out: IC50, 50% inhibition of cell proliferation, HCT116 (colon)
Method: as §1

A375 (melanoma) = assay: In vitro cytotoxic activity (MTT) assay, A375; type: cell-based; settings: Homo sapiens, A-375; A375 cells, exposed for 96 hours; read-out: IC50, 50% inhibition of cell proliferation, A375 (melanoma)
Method: as §1

H1299 (lung) = assay: In vitro cytotoxic activity (MTT) assay, H1299; type: cell-based; settings: Homo sapiens, NCI-H1299; H1299 cells, exposed for 96 hours; read-out: IC50, 50% inhibition of cell proliferation, H1299 (lung)
Method: as §1

MIAPaCa-2 (pancreas) = assay: In vitro cytotoxic activity (MTT) assay, MIAPaCa-2; type: cell-based; settings: Homo sapiens, MIA PaCa-2; MIAPaCa-2 cells, exposed for 96 hours; read-out: IC50, 50% inhibition of cell proliferation, MIAPaCa-2 (pancreas)
Method: as §1

HL60 (leukemia) = assay: In vitro cytotoxic activity (MTT) assay, HL60; type: cell-based; settings: Homo sapiens, HL-60; HL60 cells, exposed for 96 hours; read-out: IC50, 50% inhibition of cell proliferation, HL60 (leukemia)
Method: as §1

MCF7 (breast) = assay: In vitro cytotoxic activity (MTT) assay, MCF7; type: cell-based; settings: Homo sapiens; MCF7 cells, exposed for 96 hours; read-out: IC50, 50% inhibition of cell proliferation, MCF7 (breast)
Method: as §1

MDA-MB-231 (breast) = assay: In vitro cytotoxic activity (MTT) assay, MDA-MB-231; type: cell-based; settings: Homo sapiens; MDA-MB-231 cells, exposed for 96 hours; read-out: IC50, 50% inhibition of cell proliferation, MDA-MB-231 (breast)
Method: as §1

[1] = biological target: T1, recombinant human CK2 (RRββ-holoenzyme) (Homo sapiens, UniProt P68400); assay: CK2 Kinase Assay (33P-ATP, filter plate); type: biochemical; settings: final ATP 15 μM, 10 min at 30° C., eight concentrations; read-out: protein kinase CK2 IC50
T1 construct: purchased Millipore
Method: CK2 Kinase Assay was conducted using the protocol as described in Pierre F. et al; J. Med. Chem. 2011, 54, 635-654. The tested compounds in aqueous solution were added at a volume of 10 μL to a reaction mixture comprising 10 μL of assay dilution buffer (ADB; 20 mM MOPS, pH 7.2, 25 mM β-glycerol phosphate, 5 mM EGTA, 1 mM sodium orthovanadate, and 1 mM dithiothreitol), 10 μL of substrate peptide (RRRDDDSDDD, dissolved in ADB at a concentration of 1 mM), 10 μL of recombinant human CK2 (RRββ-holoenzyme, 25 ng dissolved in ADB; Millipore). Reactions were initiated by the addition of 10 μL of ATP solution (90% 75 mMMgCl2, 75 μM ATP (final ATP concentration:15 μM) dissolved in ADB; 10% [γ-33P] ATP (stock 1 mCi/100 μL; 3000 Ci/mmol (Perkin-Elmer) and maintained for 10 min at 30° C. The reactions were quenched with 100 μL of 0.75% phosphoric acid and then transferred to and filtered through a phosphor cellulose filter plate (Millipore). After washing each well five times with 0.75% phosphoric acid, the plate was dried under vacuum for 5 min and, following the addition of 15 μL of scintillation fluid to each well, the residual radioactivity was measured using a Wallac luminescence counter. The IC50 values were derived from eight concentrations of test inhibitors.

T1 sequence (P68400 whole entry): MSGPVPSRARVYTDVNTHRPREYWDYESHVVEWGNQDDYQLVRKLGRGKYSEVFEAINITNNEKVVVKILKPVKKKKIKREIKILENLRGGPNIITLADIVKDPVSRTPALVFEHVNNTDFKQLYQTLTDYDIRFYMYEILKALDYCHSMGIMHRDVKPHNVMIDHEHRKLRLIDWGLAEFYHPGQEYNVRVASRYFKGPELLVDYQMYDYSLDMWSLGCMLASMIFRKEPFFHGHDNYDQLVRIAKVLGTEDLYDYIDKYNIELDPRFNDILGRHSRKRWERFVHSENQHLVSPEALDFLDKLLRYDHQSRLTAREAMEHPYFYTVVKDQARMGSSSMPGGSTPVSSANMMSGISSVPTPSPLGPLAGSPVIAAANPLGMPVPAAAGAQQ
T1 sequence (P67870 whole entry partner): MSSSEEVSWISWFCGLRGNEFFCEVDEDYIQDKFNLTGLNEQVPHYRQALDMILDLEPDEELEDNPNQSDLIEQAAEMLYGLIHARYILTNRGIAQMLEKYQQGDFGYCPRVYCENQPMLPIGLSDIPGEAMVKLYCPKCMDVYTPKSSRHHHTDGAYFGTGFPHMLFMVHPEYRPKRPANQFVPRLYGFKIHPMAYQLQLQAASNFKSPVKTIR

IC50 [1]: 0.022 µM
Compound: Clc1cccc(Nc2nc3c(nc4cnccn43)c3ccncc23)c1 [Example 1, N-(3-chlorophenyl)pyrazino[2′,1′:2.3]imidazo[4,5-c][2.7]naphthyridin-5-amine]
IC50 (PC3 (prostate)): 1.8 µM
IC50 (HCT116 (colon)): 2.1 µM
IC50 (A375 (melanoma)): 3.3 µM
IC50 (H1299 (lung)): 1.9 µM
IC50 (MIAPaCa-2 (pancreas)): 1.2 µM
IC50 (HL60 (leukemia)): 3.9 µM
IC50 (MCF7 (breast)): 4.8 µM
IC50 (MDA-MB-231 (breast)): 4.1 µM
